{"source": "patent US10709724B2", "about": "“Methods of treating mitochondrial dysfunction” (Ecole Polytechnique Federale de Lausanne (EPFL), priority 2011, dated 2020)", "key": {"[1]": {"tested_on": "C2C12 myotubes", "test": "Mitochondrial gene expression, mtDNA and membrane potential in C2C12 myotubes", "format": "cell-based", "method": "Cell Culture, Transfection, Adenoviral Infection and Mitochondrial Characterization. HEK293T, MEF and C2C12 cells were cultured in DMEM (4.5 g/l glucose, 10% FCS). PARP-1^+/+ and PARP-1^−/− MEFs were prepared as described in (Menissier-de Murcia et al., 1997). SIRT1 and MEFs were kindly provided by Fred Alt (Chea et al., 2005). SIRT3 MER were established according to standard techniques from conditional SERT3^−/− mice. (Picard, F., Gehin, M., Annicotte, J., Rocchi, S., Champy, M. F., O'Malley, B. W., Chambon, P., and Auwerx, J. (2002). SRC-1 and TIF2 control energy balance between white and brown adipose tissues. Cell 111, 931-941.) Deletion of the SIRT3 gene was induced via infection with adenovirus encoding for the Cre recombinase. HEK293T cells were transfected using JetPei reagent (Polyplus Transfections, Illkirch, France) according to the manufacturer's instructions. C2C12 cells were differentiated in DMEM (4.5 g/L glucose, 2% horse serum) after reaching confluency for 2 days, followed by 2 days of PJ34 treatment (10 μM). PARP-1 shRNA constructs were described in (Shah et al., 2005). Human PARP-1 and siRNAs were obtained from Dharmacon (Thermo Scientific). The adenovirus encoding for FLAG-HA-PGC-1α, control and SIRT1 shRNAs were a kind gift from Pere Puigserver and were used (MOI=100) in C2C12 myotubes as described (Canto et al., 2009). Mitochondrial charge determination was performed as described (Bai et al., 2001) and DNA strand breaks were quantified by TUNEL assays according to the manufacturer's instructions (Millipore).\nmRNA and mtDNA Analysis. Total RNA was prepared using TRIzol (Invitrogen) according to the manufacturer's instructions. RNA was treated with DNase, and 2 μg of RNA was used for reverse transcription (RT). cDNA was purified on QIAquick PCR cleanup columns (Qiagen, Valencia, Calif., USA). 50× diluted cDNA was used for RT-quantitative PCR (RT-VCR) VCR) reactions (Bai et al., 2007). The RT-qPCR reactions were performed using the Light-Cycler system (Roche Applied Science) and a qPCR Supermix (Qiagen) with the primers for mice summarized in Table 1 and 4, and with the primers for worms summarized on Table 7. mtDNA quantification was performed as described (Lagouge et al., 2006) with the primers indicated in Table 2 and 5.\nMitochondrial DNA Measurement The assay was performed as described (Lagouge et al., 2006). DNA. was extracted using the standard proteinase K digestion following phenol-chloroform extraction. Mitochondrial and genomic DNA was determined using specific primers in qPCR reactions (primers summarized in Table 2 and 5.) and was expressed as percentage of WT."}, "[2]": {"tested_on": "AMP-activated protein kinase (AMPK)", "test": "AMPK activity (ACC phosphorylation) in C2C12 myotubes", "format": "cell-based", "conditions": "24 hrs", "method": "Immunoprecipitation, SDS-PAGE, Western Blotting. Cells were lysed in lysis buffer (50 mM Tris, […], EDTA 1 mM, NP40 1%, nicotinamide 5 mM, Na-butyrate 1 in M, protease inhibitors pH7.4). Proteins were separated by SDS-PAGE and transferred onto nitrocellulose membranes. The origin of the primary and secondary antibodies used can be found as supplemental experimental procedures. Reactions were developed by enhanced chemiluminescence (Amersham, Little Chalfont, UK), PGC-1α, FOXO1 and Ndufa9 acetylation levels were analyzed by immunoprecipitation from cellular or nuclear lysates of tissues with anti-PGC-1α (Millipore), anti-FOXO1 (Cell Signaling, Danvers, Mass., USA) and anti-Ndufa9 (Abcam) antibody followed by Western blot using an acetyl-lysine antibody (Cell Signaling) that was normalized to total PGC-1a/FOXO1/Ndufa9 levels (Lagouge et al., 2006; Rodgers et al., 2005). In HEK293T cells HA-tagged PGC-1α was overexpressed and was immunoprecipitated using an anti-HA. […] All blots were quantified by densitometry using ImageJ software. […] PGC-1 acetylation was determined using PGC-1 immunoprecipitates from 2 mg of protein extracts, as described in Canto et al. (Canto et al., AMPK regulates energy expenditure by modulating NAD+ metabolism and SIRT1 activity. Nature 458, 1056 (2009))."}, "[3]": {"tested_on": "SIRT1 MEF cells", "test": "PJ34 in SIRT1−/− MEFs", "format": "cell-based, mice", "method": "Cell Culture, Transfection, Adenoviral Infection and Mitochondrial Characterization. HEK293T, MEF and C2C12 cells were cultured in DMEM (4.5 g/l glucose, 10% FCS). PARP-1^+/+ and PARP-1^−/− MEFs were prepared as described in (Menissier-de Murcia et al., 1997). SIRT1 and MEFs were kindly provided by Fred Alt (Chea et al., 2005). SIRT3 MER were established according to standard techniques from conditional SERT3^−/− mice. […] Mitochondrial charge determination was performed as described (Bai et al., 2001) and DNA strand breaks were quantified by TUNEL assays according to the manufacturer's instructions (Millipore).\nImmunoprecipitation, SDS-PAGE, Western Blotting. […] Reactions were developed by enhanced chemiluminescence (Amersham, Little Chalfont, UK), PGC-1α, FOXO1 and Ndufa9 acetylation levels were analyzed by immunoprecipitation from cellular or nuclear lysates of tissues with anti-PGC-1α (Millipore), anti-FOXO1 (Cell Signaling, Danvers, Mass., USA) and anti-Ndufa9 (Abcam) antibody followed by Western blot using an acetyl-lysine antibody (Cell Signaling) that was normalized to total PGC-1a/FOXO1/Ndufa9 levels (Lagouge et al., 2006; Rodgers et al., 2005). […] All blots were quantified by densitometry using ImageJ software. […]"}}, "data": [{"compound": "CN(C)CC(=O)Nc1ccc2[nH]c(=O)c3ccccc3c2c1", "note": "[PJ34]", "values": [{"measurement": "mitochondrial DNA content", "setting": "[1]; 1 μM, 48 h", "value": "higher mitochondrial DNA content"}, {"measurement": "mitochondrial membrane potential", "setting": "[1]; 1 μM, 48 h", "value": "higher mitochondrial potential"}, {"measurement": "expression of mitochondrial genes (Ndufa2, Ndufa3, MCAD, PDK4, UCP3)", "setting": "[1]; 48 hrs", "value": "increased expression of several mitochondrial genes"}, {"measurement": "UCP3 mRNA expression with SIRT1 knock-down", "setting": "[1]; SIRT1 shRNA", "value": "persistent increase in UCP3 mRNA expression"}, {"measurement": "mitochondrial gene expression with SIRT1 knock-down", "setting": "[1]; SIRT1 shRNA", "value": "largely blunted"}, {"measurement": "AMPK activity (ACC phosphorylation levels)", "setting": "[2]", "value": "does not alter AMPK activity"}, {"measurement": "mitochondrial gene expression", "setting": "[3]; SIRT1 MEF cells", "value": "largely blunted"}, {"measurement": "PGC-1α acetylation levels", "setting": "[3]; SIRT1−/− MEFs", "value": "totally unable to decrease PGC-1α acetylation levels"}]}]}
